Assay in all cases: DTP human tumour cell line panel, 48 h
The subject of experiment [1] is EKVX NSCLC.
The subject of experiment [2] is HL-60(TB) leukemia.
Experiment [3] has as its system K-562 leukemia.
Experiment [4] relates to M14 melanoma.
The test system of experiment [5] is MCF7 breast.
Experiment [6] deals with MDA-MB-231 breast.
The subject of experiment [7] is NCI/ADR-RES ovarian.
The test system of experiment [8] is OVCAR-5 ovarian.
Experiment [9] relates to SF-295 CNS.
Experiment [10] has as its system U251 CNS.

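Five concentrations, 48 hours, 96-well plates. GI50 marks 50% less growth. At the TGI there is no net growth.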

As for `O=C(O)C1CC(c2ccccc2)=NN1c1ccccc1` (stereo not drawn), the TGI (commonly the concentration at which net growth stops) in experiment [1] is 88.9 µM; in experiment [2], over 100 µM; in experiment [3] it was over 100 µM; in [4], over 100 µM; in [5] it was over 100 µM; in experiment [6] it was over 100 µM. Also, the TGI in experiment [7], in [8], in experiment [9] and in experiment [10] was over 100 µM in each case.

Turning to `O=S(=O)(O)c1c(N=Nc2c(O)ccc3ccccc23)ccc2ccccc12`, the concentration for total growth inhibition (TGI) in experiment [1], in experiment [3], in experiment [4], in experiment [6], in experiment [7] and in experiment [8] was over 100 µM throughout. Moreover, the TGI in experiment [9] and in [10] was over 100 µM each time.

For the molecule `O=C(/C=C/c1ccc(O)cc1)NCCc1ccc(O)cc1`, the TGI in experiment [1], in [2], in [3], in experiment [4], in experiment [5] and in experiment [6] was over 12.5 µM in each case. For the same molecule, the TGI in [7], in [8], in [9] and in experiment [10] was over 12.5 µM throughout.

For the molecule `CC(O)C(O)C(N)CC=O` (stereo not drawn), the TGI in experiment [1], in [2], in experiment [3], in [5], in [7] and in [8] was over 500 µM in each case. Besides, the concentration for total growth inhibition (TGI) in experiment [9] and in experiment [10] was over 500 µM in each case.

`N#C/C=C1\C=CC(O)C(O)C1OC1OC(CO)C(O)C(O)C1O` (stereo not drawn): the TGI in experiment [1], in experiment [2], in experiment [3], in experiment [4], in experiment [5] and in experiment [6] was over 100 µM in each case. Moreover, the total growth inhibition concentration (TGI) in experiment [7], in experiment [8], in [9] and in [10] was over 100 µM each time.

For the molecule `CN(C)Cc1ccc(C(=O)Nc2ccc3ncnc(Nc4ccc(Oc5cccc(F)c5)c(Cl)c4)c3c2)cc1`, the GI50 (as a rule, the concentration giving 50% growth inhibition) is 1300 nM in experiment [1]; 1910 nM in experiment [2]; 1170 nM in experiment [3]; 1540 nM in experiment [5]; 1650 nM in [6]; 1670 nM in experiment [7]. The GI50 in [8] is 1640 nM; in [9] it was 1710 nM. In addition, the TGI turned out to be 2.7 µM in experiment [1]; 3.7 µM in experiment [2]; 2.88 µM in [3]; 3 µM in experiment [5]; 3.12 µM in experiment [6]; 3.45 µM in experiment [7]. The TGI in experiment [8] and in experiment [9] was 3.11 µM each time.

For `Fc1ccc(-c2ccc(-c3nnc(-c4cc(F)c(Cl)cc4Cl)o3)o2)cc1Cl`, the GI50 in experiment [1] was 26500 nM; in experiment [2], over 100000 nM; in experiment [3], 48500 nM; in [5], 26800 nM; in experiment [6], 29700 nM; in experiment [7], 35800 nM. Further, the GI50 was over 100000 nM in experiment [8], 30200 nM in experiment [9] and 32.8 µM in [10]. For the same molecule, the TGI in experiment [1], in experiment [2], in experiment [3], in [5], in [6] and in [7] was over 100 µM in each case. Also, the TGI in experiment [8], in experiment [9] and in [10] was over 100 µM each time.

Regarding `Nc1nc(SCc2ccccc2)c2ncn(Cc3ccccc3)c2n1`, the TGI in experiment [1], in experiment [2], in experiment [3], in experiment [4], in [5] and in experiment [6] was over 100 µM throughout. Further, the TGI in experiment [7], in experiment [8], in experiment [9] and in experiment [10] was over 100 µM each time.

`COc1ccc(SC(C)(SC)c2ccccn2)c(OC)n1` (stereo not drawn): the total growth inhibition concentration (TGI) is over 100 µM in experiment [1]; 28.3 µM in [2]; over 100 µM in experiment [3]; over 100 µM in experiment [4]; over 100 µM in experiment [5]; over 100 µM in experiment [6]. Also, the concentration for total growth inhibition (TGI) in [7], in experiment [8], in experiment [9] and in experiment [10] was over 100 µM throughout.

With `S=C(Nc1ccc(Cl)cc1)Nc1ccc(Cl)cc1` (tested in a mixture with another compound), the GI50 in [1] was 2250 nM; in experiment [2] it was 1980 nM; in experiment [3], 2280 nM; in experiment [4], 2030 nM; in [5], 2890 nM; in experiment [6], 1860 nM. In addition, the GI50 is 2540 nM in experiment [7], 2380 nM in experiment [8], 1750 nM in experiment [9] and 1.64 µM in experiment [10]. For the same molecule, the TGI in [1] was over 100 µM; in experiment [2], 4.98 µM; in experiment [3], over 100 µM; in experiment [4], 5.39 µM; in experiment [5], 8.09 µM; in experiment [6], 3.68 µM. Further, the TGI worked out at 13.9 µM in experiment [7], 9.71 µM in experiment [8], 4.38 µM in experiment [9] and 3.52 µM in [10].

For the molecule `S=C1N(c2ccc(Cl)cc2)C2=C(N=Nc3ccccc3)C(=Nc3ccccc3S2)N1c1ccccn1`, the TGI in experiment [1] came to 26.6 µM; in [2], 28.1 µM; in [4] it was 26.6 µM; in experiment [5], 15.2 µM; in [6], 25.4 µM; in experiment [7], 33.4 µM. Moreover, the results for the TGI in [8], in experiment [9] and in experiment [10] were 35.1 µM, 32.3 µM and 23.7 µM, respectively.

On to `O=S(O)c1cc(Cl)cc(Cl)c1O`, for which the TGI in experiment [1], in [2], in experiment [3], in experiment [4], in experiment [8] and in experiment [10] was over 100 µM each time.

On to `C[N+]1(C)CCC(C#N)(c2ccccc2)CC1`, for which the TGI in experiment [1], in experiment [2], in experiment [3], in [4], in [5] and in experiment [7] was over 100 µM throughout. Further, the TGI in experiment [8], in [9] and in experiment [10] was over 100 µM each time.

Regarding `[C-]#[O+].[C-]#[O+].[Ir].[O-]c1cccc2cccnc12`, the GI50 is over 100000 nM in experiment [1], over 100000 nM in [8], over 100000 nM in experiment [9] and over 100 µM in experiment [10]. Besides, the TGI in [1], in [8], in experiment [9] and in experiment [10] was over 100 µM each time.

Consider `COc1cccc(-c2nc3c(C(=O)NCCN(C)C)cccc3[nH]2)c1`, for which the TGI in [1] was 97.5 µM; in [2], 41.2 µM; in experiment [3] it was over 70.9 µM; in experiment [5] it was over 100 µM; in experiment [7], 44.1 µM; in experiment [8] it was 42.7 µM. Moreover, the concentration for total growth inhibition (TGI) in experiment [9] was 47.6 µM; in [10], over 61.6 µM.

As for `C=C1C(=O)OC2C1C(OC(=O)/C(C)=C/C)CC1(C)C(=O)CCC(=C)C21` (stereo not drawn), the TGI worked out at 33.8 µM in [1]; 23.3 µM in experiment [4]; 18 µM in [5]; 38.4 µM in experiment [6]; 33.8 µM in [7]; 32 µM in experiment [8]. Besides, the total growth inhibition concentration (TGI) is 35.8 µM in experiment [9] and over 54.4 µM in [10].

In the case of `CC(C)C(N=Cc1ccccc1O)C(=O)O` (stereo not drawn), the TGI in experiment [1], in [2], in experiment [3], in experiment [4], in experiment [5] and in experiment [6] was over 100 µM in each case. Moreover, the TGI in experiment [7], in [8], in experiment [9] and in experiment [10] was over 100 µM each time.

Turning to `O=C1/C(=C\c2ccc(-c3ccc(Cl)cc3Cl)o2)SC2N=C(COc3ccc(Cl)cc3)NN12` (stereo not drawn), the TGI in [1] was 86.5 µM; in experiment [2], over 100 µM; in experiment [3], over 100 µM; in [4], over 100 µM; in experiment [5], over 100 µM; in experiment [6] it was over 100 µM. Besides, the concentration for total growth inhibition (TGI) in experiment [7] was over 100 µM; in experiment [8], over 100 µM; in [9], over 100 µM; in [10] it was 98.2 µM.
